Calls of active or inactive are those of the source.
What was measured:
[1] = biological target: Cyclin-dependent kinase 5 (Homo sapiens, UniProt Q00535); format: functional;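 note: CDK5 measured as one member of a kinase profiling panel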
[2] = biological target: RAC-alpha serine/threonine-protein kinase (Homo sapiens, UniProt P31749); format: functional;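 note: AKT1 affinity measured as one member of a kinome-wide kinase profiling panel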
[3] = biological target: Sphingosine 1-phosphate receptor 2 (Homo sapiens, UniProt O95136); test: Dose Response Cell Based Assay for Agonists of the S1P2 Receptor. [Related pubchem assays: 729, 736, 843 ]; format: functional
Sequence of Sphingosine 1-phosphate receptor 2 (O95136 whole entry): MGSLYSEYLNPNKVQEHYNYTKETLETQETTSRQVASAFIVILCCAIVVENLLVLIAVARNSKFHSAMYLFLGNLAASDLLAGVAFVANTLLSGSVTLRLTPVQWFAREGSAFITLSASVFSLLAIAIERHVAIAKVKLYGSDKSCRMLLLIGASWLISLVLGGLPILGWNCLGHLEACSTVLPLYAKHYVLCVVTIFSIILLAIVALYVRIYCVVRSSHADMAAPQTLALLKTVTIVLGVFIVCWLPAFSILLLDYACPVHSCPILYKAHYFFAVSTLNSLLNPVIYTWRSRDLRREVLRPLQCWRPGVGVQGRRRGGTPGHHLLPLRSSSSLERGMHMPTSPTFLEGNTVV

[4] = biological target: T1, Mannose-6-phosphate isomerase (Homo sapiens, UniProt P34949); test: MPI inhibition at elevated mannose 6-phosphate – biochemical, fluorescence intensity, high mannose 6-phosphate, primary screen (AID 1220)
T1 sequence (P34949 whole entry): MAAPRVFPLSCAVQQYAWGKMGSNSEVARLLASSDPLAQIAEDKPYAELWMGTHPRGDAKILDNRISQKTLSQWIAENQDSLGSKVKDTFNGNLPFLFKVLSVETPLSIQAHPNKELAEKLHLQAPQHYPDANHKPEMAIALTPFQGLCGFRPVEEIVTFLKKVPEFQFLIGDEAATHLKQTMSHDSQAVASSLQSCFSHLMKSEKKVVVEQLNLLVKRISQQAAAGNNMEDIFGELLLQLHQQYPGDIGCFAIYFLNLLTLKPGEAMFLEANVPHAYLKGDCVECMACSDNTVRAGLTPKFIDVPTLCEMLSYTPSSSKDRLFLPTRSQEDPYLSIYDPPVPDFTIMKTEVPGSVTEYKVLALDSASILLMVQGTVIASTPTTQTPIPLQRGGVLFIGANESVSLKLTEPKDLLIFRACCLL

[5] = Luminescence Cell-Based Dose Confirmation HTS to Identify Activators of 5'UTR Stem-Loop Driven Alpha-Synuclein mRNA Translation in H4 Neuroglioblastoma Cells. [Related pubchem assays: 1829 (Project Summary), 1814 (Primary HTS)]; format: functional

Sequence of RAC-alpha serine/threonine-protein kinase (P31749 whole entry): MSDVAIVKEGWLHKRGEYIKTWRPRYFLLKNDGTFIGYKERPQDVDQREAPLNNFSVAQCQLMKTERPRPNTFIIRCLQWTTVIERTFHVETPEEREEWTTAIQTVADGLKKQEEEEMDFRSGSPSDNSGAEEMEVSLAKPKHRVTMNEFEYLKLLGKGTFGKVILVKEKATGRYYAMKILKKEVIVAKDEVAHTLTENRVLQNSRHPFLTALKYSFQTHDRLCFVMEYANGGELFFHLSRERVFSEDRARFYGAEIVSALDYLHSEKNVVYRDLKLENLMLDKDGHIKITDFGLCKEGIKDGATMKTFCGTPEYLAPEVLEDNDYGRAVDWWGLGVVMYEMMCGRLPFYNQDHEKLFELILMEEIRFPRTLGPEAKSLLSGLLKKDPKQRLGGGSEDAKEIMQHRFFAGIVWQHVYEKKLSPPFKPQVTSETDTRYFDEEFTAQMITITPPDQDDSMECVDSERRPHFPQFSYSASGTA
Sequence of Cyclin-dependent kinase 5 (Q00535 whole entry): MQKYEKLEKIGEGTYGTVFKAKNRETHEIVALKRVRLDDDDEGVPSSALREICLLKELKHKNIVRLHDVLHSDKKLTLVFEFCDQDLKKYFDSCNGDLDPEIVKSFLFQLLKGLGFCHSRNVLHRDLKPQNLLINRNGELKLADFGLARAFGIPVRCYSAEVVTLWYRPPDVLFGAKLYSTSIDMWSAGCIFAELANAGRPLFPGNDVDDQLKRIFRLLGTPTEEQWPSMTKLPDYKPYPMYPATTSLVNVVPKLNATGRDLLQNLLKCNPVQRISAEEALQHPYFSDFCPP

CN1CCN(c2nc(C3=C(c4c[nH]c5ccccc45)C(=O)NC3=O)c3ccccc3n2)CC1 [SOTRASTAURIN]
Ki [1]: 3.16 µM (active) | Ki [2]: 0.501 µM (active)

CCC(C)n1c(NC(=O)c2ccccc2)c(C#N)c2nc3ccccc3nc21 (stereo not given)
EC50 [3]: 4.6 µM (active) | IC50 [4]: > 50 µM (not active)

CCN1/C(=C\c2ccc3ccccc3[n+]2CC)Sc2cc(C)ccc21
EC50 [5]: 15.7 µM (active)

Reference: ChEMBL document CHEMBL1201862, “PubChem BioAssay data set” (2004)
